Experimental data as given in ChEMBL document CHEMBL1133777, “De novo design of a novel oxazolidinone analogue as a potent and selective alpha1A adrenergic receptor antagonist with high oral bioavailability” (J Med Chem, 2000).

Experiments:
[1] = target: T1, Alpha-2B adrenergic receptor (Homo sapiens, UniProt P18089); assay: Binding affinity towards human alpha-2B-adrenergic receptor, using [3H]rauwolscine as radioligand.
T1 sequence (P18089 whole entry): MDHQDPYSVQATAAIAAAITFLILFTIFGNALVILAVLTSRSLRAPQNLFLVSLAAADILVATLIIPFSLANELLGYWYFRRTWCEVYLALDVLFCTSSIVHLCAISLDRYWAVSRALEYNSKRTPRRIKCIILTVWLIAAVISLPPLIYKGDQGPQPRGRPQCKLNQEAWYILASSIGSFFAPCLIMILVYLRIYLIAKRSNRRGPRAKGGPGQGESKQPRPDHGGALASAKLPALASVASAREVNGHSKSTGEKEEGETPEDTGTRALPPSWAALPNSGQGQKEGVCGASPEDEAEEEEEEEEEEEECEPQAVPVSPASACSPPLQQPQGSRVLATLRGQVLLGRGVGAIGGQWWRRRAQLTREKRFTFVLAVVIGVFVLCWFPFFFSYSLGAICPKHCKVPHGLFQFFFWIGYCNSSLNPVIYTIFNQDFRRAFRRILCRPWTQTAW

[2] = Oral bioavailability in rat; format: ADME, organism-based; conditions: in vivo
[3] = target: 5-hydroxytryptamine receptor 1D (Homo sapiens, UniProt P28221); assay: Binding affinity towards 5-HT1D receptor, using [3H]5-HT as radioligand.
[4] = target: 5-hydroxytryptamine receptor 2A (Homo sapiens, UniProt P28223); assay: Binding affinity towards 5-hydroxytryptamine 2A receptor using [3H]5-HT as radioligand.
[5] = target: Histamine H1 receptor (Homo sapiens, UniProt P35367); assay: Binding affinity towards Histamine H1 receptor in human brain tissue preparation, using [3H]pyrilamine as radioligand.
[6] = target: Histamine H2 receptor (Homo sapiens, UniProt P25021); assay: Binding affinity towards human Histamine H2 receptor, using [3H]tiotidine as radioligand.
[7] = target: T2, Alpha-1D adrenergic receptor (Rattus norvegicus, UniProt P23944); assay: Binding affinity towards Alpha1D rat adrenergic receptors, using [125I]HEAT as radioligand.
T2 sequence (P23944 whole entry): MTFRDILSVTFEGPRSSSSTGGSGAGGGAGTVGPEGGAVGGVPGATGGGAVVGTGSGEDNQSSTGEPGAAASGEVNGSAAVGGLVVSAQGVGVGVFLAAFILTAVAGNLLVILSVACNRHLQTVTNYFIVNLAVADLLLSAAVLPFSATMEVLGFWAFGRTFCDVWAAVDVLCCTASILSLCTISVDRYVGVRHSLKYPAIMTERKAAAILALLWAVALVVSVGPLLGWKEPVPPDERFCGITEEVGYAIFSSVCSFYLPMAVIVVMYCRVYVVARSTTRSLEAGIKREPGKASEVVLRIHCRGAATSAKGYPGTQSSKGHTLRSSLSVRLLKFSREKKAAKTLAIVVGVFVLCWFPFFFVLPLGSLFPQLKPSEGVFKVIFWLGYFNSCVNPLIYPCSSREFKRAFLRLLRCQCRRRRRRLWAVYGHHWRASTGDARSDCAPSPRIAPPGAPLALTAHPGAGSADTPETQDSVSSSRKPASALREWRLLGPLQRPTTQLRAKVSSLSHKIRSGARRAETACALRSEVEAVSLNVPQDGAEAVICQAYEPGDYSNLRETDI

[8] = target: T3, Alpha-1D adrenergic receptor (Homo sapiens, UniProt P25100); assay: Binding affinity towards Alpha1D human adrenergic receptors, using [125I]HEAT as radioligand.
T3 sequence (P25100 whole entry): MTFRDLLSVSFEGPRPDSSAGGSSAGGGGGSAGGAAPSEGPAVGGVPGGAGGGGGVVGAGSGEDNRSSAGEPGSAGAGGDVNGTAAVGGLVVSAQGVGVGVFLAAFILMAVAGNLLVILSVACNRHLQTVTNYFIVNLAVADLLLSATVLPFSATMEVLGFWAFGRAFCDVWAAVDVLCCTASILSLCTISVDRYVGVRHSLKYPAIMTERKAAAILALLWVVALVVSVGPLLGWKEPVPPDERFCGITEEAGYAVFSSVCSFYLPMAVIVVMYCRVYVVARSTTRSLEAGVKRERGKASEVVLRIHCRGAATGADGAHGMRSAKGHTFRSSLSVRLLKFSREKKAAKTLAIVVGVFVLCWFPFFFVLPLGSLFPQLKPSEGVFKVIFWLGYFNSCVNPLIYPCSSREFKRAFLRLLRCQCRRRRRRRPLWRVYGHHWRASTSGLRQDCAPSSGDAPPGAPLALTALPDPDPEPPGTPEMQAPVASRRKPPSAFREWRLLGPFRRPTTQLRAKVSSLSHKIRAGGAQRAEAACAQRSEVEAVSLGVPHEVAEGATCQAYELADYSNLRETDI

[9] = target: T4, Alpha-1B adrenergic receptor (Homo sapiens, UniProt P35368); assay: Binding affinity towards Alpha1B human adrenergic receptors, using [125I]HEAT as radioligand.
T4 sequence (P35368 whole entry): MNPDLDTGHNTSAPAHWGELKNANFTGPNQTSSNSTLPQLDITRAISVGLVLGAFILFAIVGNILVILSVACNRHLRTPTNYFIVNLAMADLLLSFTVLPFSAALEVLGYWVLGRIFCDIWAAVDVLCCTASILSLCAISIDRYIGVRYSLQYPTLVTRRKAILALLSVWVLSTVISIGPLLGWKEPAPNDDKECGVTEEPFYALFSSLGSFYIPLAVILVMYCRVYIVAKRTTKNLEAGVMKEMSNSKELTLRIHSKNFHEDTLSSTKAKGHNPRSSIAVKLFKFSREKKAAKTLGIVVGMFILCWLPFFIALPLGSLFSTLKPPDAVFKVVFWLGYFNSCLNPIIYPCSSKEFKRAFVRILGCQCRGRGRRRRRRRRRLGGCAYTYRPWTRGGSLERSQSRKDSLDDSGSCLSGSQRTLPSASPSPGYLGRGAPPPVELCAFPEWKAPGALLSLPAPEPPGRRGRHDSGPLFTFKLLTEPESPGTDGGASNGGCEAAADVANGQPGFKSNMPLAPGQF

[10] = target: 5-hydroxytryptamine receptor 1B (Homo sapiens, UniProt P28222); assay: Binding affinity towards 5-hydroxytryptamine 1B receptor using [3H]5-HT as radioligand.
[11] = target: T5, 5-hydroxytryptamine receptor 1A (Mus musculus, UniProt Q64264); assay: Binding affinity towards 5-hydroxytryptamine 1A receptor receptor, using [3H]5-HT as radioligand.
T5 sequence (Q64264 whole entry): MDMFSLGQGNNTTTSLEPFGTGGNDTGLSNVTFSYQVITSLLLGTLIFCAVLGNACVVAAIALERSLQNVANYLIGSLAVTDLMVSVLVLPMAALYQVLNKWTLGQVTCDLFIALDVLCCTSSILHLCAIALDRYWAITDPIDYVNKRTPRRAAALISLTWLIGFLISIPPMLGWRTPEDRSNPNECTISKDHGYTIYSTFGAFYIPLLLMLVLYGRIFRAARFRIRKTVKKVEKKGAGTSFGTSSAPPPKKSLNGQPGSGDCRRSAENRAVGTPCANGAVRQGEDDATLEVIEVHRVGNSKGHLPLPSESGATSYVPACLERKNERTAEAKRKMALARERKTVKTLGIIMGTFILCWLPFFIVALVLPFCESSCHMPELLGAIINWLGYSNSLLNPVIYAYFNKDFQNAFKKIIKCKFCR

[12] = Half-life in dog; format: ADME, organism-based, Canis lupus familiaris; conditions: in vivo
[13] = Half-life in rat; format: ADME, organism-based; conditions: in vivo
[14] = tested on: Rattus norvegicus; assay: Compound was tested in situ for the inhibition of phenylephrine-induced contractions in anesthetized rat; format: functional
[15] = species on record: Homo sapiens; assay: In vitro inhibition of A-61603 induced contractions in human prostate tissue; format: functional; conditions: Prostate gland
[16] = tested on: Canis familiaris; assay: In vivo for selective antagonistic activity against diastolic blood pressure in dog, using phenylephrine as agonist; format: functional, Canis lupus familiaris, Artery
[17] = species on record: Rattus norvegicus; assay: In vitro inhibition of A-61603 induced contractions in rat prostate tissue; format: functional; conditions: Prostate gland
[18] = species on record: Canis familiaris; assay: In vitro inhibition of phenylephrine induced contractions in dog prostate tissue; format: functional; conditions: Canis lupus familiaris, Prostate gland
[19] = tested on: Canis familiaris; assay: In vivo for selective antagonistic activity against intra-urethral pressure in dog, using phenylephrine as agonist; format: functional, Canis lupus familiaris, Urethra
[20] = target: T6, Alpha-2C adrenergic receptor (Homo sapiens, UniProt P18825); assay: Binding affinity towards human alpha-2C-adrenergic receptor, using [3H]rauwolscine as radioligand.
T6 sequence (P18825 whole entry): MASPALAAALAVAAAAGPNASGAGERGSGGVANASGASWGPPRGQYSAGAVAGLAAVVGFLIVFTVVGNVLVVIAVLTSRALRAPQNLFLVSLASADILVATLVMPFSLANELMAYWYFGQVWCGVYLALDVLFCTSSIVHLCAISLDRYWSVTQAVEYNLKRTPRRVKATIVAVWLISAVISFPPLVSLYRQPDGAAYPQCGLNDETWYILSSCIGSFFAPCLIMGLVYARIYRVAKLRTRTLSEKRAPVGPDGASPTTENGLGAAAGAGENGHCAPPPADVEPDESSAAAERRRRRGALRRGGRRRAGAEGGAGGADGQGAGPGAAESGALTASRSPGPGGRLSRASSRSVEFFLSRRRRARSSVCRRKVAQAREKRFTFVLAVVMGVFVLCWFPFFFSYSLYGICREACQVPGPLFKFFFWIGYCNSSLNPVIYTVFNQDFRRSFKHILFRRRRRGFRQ

[21] = target: Voltage-gated L-type calcium channel (Rattus norvegicus, UniProt P22002+Q02485+P27732); assay: Inhibition of [3H]nitrendipine binding to rat L-type Ca-channel receptor; format: protein assay
[22] = species on record: Rattus norvegicus; assay: In vitro inhibition of norepinephrine induced contractions in isolated rat aorta; format: functional
[23] = Oral bioavailability in dog; format: ADME, organism-based, Canis lupus familiaris; conditions: in vivo
[24] = target: T7, Alpha-2A adrenergic receptor (Homo sapiens, UniProt P08913); assay: Binding affinity towards human alpha-2A-adrenergic receptor, using [3H]rauwolscine as radioligand.
T7 sequence (P08913 whole entry): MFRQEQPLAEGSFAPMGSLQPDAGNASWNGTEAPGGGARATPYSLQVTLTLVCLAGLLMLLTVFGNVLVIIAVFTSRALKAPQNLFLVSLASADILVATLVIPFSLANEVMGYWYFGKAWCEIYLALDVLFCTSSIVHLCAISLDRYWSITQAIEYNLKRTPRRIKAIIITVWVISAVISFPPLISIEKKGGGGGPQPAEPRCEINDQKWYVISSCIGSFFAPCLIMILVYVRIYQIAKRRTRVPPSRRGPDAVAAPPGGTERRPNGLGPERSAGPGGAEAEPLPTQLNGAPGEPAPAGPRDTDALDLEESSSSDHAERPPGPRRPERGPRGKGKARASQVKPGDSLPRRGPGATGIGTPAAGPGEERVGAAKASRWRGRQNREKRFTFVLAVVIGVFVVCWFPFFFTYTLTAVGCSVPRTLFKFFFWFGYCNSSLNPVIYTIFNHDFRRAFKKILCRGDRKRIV

[25] = target: T8, Alpha-1B adrenergic receptor (Rattus norvegicus, UniProt P15823); assay: Binding affinity towards Alpha1B rat adrenergic receptors, using [125I]HEAT as radioligand.
T8 sequence (P15823 whole entry): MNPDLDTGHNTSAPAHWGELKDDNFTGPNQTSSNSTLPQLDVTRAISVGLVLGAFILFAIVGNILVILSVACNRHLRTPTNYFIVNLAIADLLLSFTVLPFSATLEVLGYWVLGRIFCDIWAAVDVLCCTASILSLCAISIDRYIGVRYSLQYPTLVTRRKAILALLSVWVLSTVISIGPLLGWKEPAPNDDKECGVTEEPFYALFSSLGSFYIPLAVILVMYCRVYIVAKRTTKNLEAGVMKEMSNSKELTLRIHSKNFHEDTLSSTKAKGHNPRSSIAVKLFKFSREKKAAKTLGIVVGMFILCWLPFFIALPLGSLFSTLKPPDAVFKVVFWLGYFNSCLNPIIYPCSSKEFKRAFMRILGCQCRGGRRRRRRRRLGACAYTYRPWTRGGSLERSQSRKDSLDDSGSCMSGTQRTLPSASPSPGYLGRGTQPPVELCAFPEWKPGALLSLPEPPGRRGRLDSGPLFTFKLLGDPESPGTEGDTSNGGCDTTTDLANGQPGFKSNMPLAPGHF

Chain of 5-hydroxytryptamine receptor 1D (P28221 whole entry): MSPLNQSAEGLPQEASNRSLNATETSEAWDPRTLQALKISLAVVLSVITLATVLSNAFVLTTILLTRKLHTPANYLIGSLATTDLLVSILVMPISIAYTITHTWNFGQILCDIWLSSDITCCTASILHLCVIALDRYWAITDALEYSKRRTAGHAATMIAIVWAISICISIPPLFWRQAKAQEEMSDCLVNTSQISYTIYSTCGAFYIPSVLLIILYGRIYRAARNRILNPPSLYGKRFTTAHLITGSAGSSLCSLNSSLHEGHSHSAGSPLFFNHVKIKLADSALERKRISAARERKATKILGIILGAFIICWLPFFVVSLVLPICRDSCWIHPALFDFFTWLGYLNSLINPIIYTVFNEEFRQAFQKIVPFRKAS
Chain of Histamine H2 receptor (P25021 whole entry): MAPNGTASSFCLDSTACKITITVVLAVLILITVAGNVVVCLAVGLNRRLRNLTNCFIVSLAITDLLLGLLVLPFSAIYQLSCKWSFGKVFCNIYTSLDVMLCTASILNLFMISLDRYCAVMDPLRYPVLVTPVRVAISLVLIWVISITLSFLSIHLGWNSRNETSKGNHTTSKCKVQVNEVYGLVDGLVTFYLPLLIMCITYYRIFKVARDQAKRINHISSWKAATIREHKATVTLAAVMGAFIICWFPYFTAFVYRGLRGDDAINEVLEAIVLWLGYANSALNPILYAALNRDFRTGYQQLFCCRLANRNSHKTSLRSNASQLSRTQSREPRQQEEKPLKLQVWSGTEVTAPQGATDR
Chain of Histamine H1 receptor (P35367 whole entry): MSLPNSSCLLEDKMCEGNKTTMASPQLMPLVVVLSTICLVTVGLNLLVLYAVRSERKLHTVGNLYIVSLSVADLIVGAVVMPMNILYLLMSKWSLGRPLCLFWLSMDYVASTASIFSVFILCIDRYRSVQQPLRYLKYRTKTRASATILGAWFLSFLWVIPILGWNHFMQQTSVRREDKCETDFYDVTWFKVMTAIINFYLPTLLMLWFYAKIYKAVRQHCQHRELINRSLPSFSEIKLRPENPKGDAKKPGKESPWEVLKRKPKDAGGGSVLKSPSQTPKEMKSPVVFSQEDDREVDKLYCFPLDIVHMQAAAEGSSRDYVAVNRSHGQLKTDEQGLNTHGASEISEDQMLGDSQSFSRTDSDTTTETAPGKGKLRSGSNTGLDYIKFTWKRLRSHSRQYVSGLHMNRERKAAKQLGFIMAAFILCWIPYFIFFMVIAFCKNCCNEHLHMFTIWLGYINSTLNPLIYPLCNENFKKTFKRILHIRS
Chain of 5-hydroxytryptamine receptor 1B (P28222 whole entry): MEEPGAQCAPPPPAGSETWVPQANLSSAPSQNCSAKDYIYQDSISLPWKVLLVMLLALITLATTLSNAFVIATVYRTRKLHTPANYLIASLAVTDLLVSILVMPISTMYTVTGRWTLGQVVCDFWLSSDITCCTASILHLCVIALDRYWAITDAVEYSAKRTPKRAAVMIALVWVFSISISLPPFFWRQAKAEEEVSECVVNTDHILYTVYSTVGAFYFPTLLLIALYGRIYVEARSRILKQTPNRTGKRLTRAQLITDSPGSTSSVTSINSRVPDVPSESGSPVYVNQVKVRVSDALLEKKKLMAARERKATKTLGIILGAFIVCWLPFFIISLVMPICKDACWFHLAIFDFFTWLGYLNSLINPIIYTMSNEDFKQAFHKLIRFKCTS
Chain of 5-hydroxytryptamine receptor 2A (P28223 whole entry): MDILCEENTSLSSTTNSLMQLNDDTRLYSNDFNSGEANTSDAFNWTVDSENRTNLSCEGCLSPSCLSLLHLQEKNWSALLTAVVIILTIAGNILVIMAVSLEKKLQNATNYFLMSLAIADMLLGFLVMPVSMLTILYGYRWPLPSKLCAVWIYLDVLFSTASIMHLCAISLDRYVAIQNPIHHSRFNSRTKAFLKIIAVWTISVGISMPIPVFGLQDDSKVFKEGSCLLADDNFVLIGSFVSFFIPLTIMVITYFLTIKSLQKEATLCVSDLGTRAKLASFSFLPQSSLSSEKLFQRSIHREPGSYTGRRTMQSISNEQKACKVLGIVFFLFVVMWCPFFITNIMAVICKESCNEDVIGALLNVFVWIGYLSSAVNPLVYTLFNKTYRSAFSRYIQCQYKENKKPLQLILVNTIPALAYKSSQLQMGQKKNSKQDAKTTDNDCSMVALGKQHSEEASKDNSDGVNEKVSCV

C[C@@H]1OC(=O)N(C(=O)NCCCN2CCC(c3ccc(F)cc3)CC2)[C@H]1c1ccc(F)c(F)c1
Ki [1]: > 45 nM | bioavailability [2]: 25% | Ki [3]: > 500 nM | Ki [4]: > 500 nM | Ki [5]: 54 nM | Ki [6]: > 1000 nM | Ki [7]: 62 nM | Ki [8]: 122 nM | Ki [9]: 119 nM | Ki [10]: > 500 nM | Ki [11]: > 500 nM | half-life [12]: > 12 h | half-life [13]: 6 h | AD50 [14]: 0.012 mg/kg | Kb [15]: 0.1 nM | DBP15 [16]: >300 µg/kg | Kb [17]: 0.26 nM | Kb [18]: 0.33 nM | Kb [19]: 3 µg/kg | Ki [20]: > 45 nM | Ki [21]: > 1000 nM | Kb [22]: > 1000 nM | bioavailability [23]: 74% | Ki [24]: > 45 nM | Ki [25]: 79 nM

COc1cc2nc(N3CCN(C(=O)C4CCCO4)CC3)nc(N)c2cc1OC (configuration not stated) [TERAZOSIN]
AD50 [14]: 0.052 mg/kg | Kb [15]: 25 nM | DBP15 [16]: 72 µg/kg | Kb [17]: 25 nM | Kb [18]: 130 nM | Kb [19]: 16 µg/kg | Kb [22]: 19 nM
